Measured values from patent publication US20180163179A1, “METHOD FOR IMPROVEMENT OF DRUG METABOLISM OF HUMAN STEM CELL-DERIVED HEPATOCYTES” (KOREA ADVANCED INSTITUTE OF SCIENCE AND TECHNOLOGY, priority 2015, published 2018).

What was measured:
[1] = system: human embryonic stem cell-derived hepatocytes (hES-Hep); details: hES-Hep treated with alcohol, real-time PCR, FIG. 3
Experimental: Particularly, total RNA was extracted from the adult Hep, Fetal-Hep, and human embryonic stem cell-derived hepatocytes by using Trizol reagent (Invitrogen), followed by cDNA synthesis by using amfi-rivert II cDNA synthesis Master Mix (Gendepot) according to the manufacturer's protocol. Genes in interest were amplified from the transcript by using the primers listed in the Table 1 below by using SYBR green real-time PCR master mix (Toyobo, Japan). The real-time PCR was performed by using Bio-rad CFX96 real-time PCR detection system (Bio-rad). The gene expression level was calculated by ΔΔCt method and by using β-actin as a denominator of the gene expression. Compared with the control gene expression, the obtained value was presented as fold change.

[2] = system: human embryonic stem cell-derived hepatocytes (hES-Hep); details: hES-Hep treated with alcohol (200 mM ethanol, 24 hours), without co-culture, FIG. 6
Experimental: 2×10^5 mouse hepatic stellate cells were cultured on the plate (Corning, USA) with 8 μm holes coated with human embryonic stem cell-derived hepatocytes cultured in DMEM supplemented with 10% FBS. The cell ratio of mouse hepatic stellate cells to human embryonic stem cell-derived hepatocytes was maintained as 1:2. […] 48 hours later, the cells and the medium were collected (FIG. 4).
Human embryonic stem cell-derived hepatocytes were co-cultured with mouse hepatic stellate cells. Then, TUNEL assay was performed to investigate apoptosis therein.
Apoptosis was investigated by using In Situ Cell Death Detection Kit (Fluorescence, Roche). Nucleus of the cell was stained with DAPI, followed by visualization using Leica DMI 4000B automatic vertical microscope system (Germany) equipped with Leica EL6000 and Leica CTR 4000 CCD camera. Computer assisted images were analyzed with Leica Application Suite Advanced Fluorescence (LAS AF, Leica).

[3] = system: human embryonic stem cell-derived hepatocytes (hES-Hep); test: Immunocytochemistry (immunofluorescence) of CYP2E1 after the treatment of retinoic acid; format: cell-based; details: 1 ump all-trans retinoic acid and 0.2 M EtOH, culture 24 hours, anti-CYP2E1 antibody, FIG. 18
Experimental: Human embryonic stem cell-derived hepatocytes were treated with retinoic acid, followed by immunofluorescence in order to examine the expression of CYP2E1, the alcohol metabolism associated enzyme.
Particularly, the human embryonic stem cell-derived hepatocytes differentiated by the same manner as described in Example 1 were treated with 1 ump all-trans retinoic acid and 0.2 M EtOH, followed by culture for 24 hours. The cells were fixed with 4% paraformaldehyde. […] Blocking was performed by treating the cells with 5% goat serum at 37° C. for 1 hour. The cells were stained with anti-CYP2E1 antibody (Millipore, Germany).

[4] = system: human embryonic stem cell-derived hepatocytes (hES-Hep); test: Gene expression (real time PCR) after the treatment of retinoic acid and ethanol; format: cell-based; details: 1 ump all-trans retinoic acid and 0.2 M EtOH, culture 24 hours, FIG. 17
Experimental: Human embryonic stem cell-derived hepatocytes were treated with retinoic acid and ethanol, followed by investigation of the gene expressions of alcohol metabolism associated enzymes, drug metabolism associated enzymes, and anti-oxidant enzymes.
(§1) Particularly, the human embryonic stem cell-derived hepatocytes differentiated by the same manner as described in Example 1 were treated with 1 ump all-trans retinoic acid and 0.2 M EtOH, followed by culture for 24 hours. Then, real time PCR was performed by the same manner as described in Experimental Example <1-3> in order to examine the expressions of alcohol metabolism associated enzymes (AHD1a, ADH1b, ADH1c, and CYP2E1) and anti-oxidant enzymes (catalase and Mn-SOD).

[5] = system: human embryonic stem cell-derived hepatocytes (hES-Hep); test: Gene expression (real time PCR) after the treatment of retinoic acid; format: cell-based; details: 1 ump all-trans retinoic acid or 9-cis-retinoic acid, culture 12~24 hours, FIG. 16
Experimental: Human embryonic stem cell-derived hepatocytes were treated with retinoic acid, followed by investigation of the gene expressions of alcohol metabolism associated enzymes, drug metabolism associated enzymes, and anti-oxidant enzymes.
as §1, with “or 9-cis-retinoic acid,” for “and 0.2 M EtOH,”, “12˜24” for “24”, “<1˜3>” for “<1-3>”, “CYP2E1), drug metabolism associated enzymes (CYP2C9, CYP2D6, and CYP3A4),” for “CYP2E1)”

| SMILES | expression of alcohol metabolism associated enzymes [1] | apoptosis (TUNEL) [2] | expression of CYP2E1 (immunofluorescence) [3] | expressions of alcohol metabolism associated enzymes (AHD1a, ADH1b, ADH1c, CYP2E1) and anti-oxidant enzymes (catalase, Mn-SOD) [4] | expressions of alcohol metabolism associated enzymes (AHD1a, ADH1b, ADH1c, CYP2E1), drug metabolism associated enzymes (CYP2C9, CYP2D6, CYP3A4) and anti-oxidant enzymes (catalase, Mn-SOD) [5] |
| --- | --- | --- | --- | --- | --- |
| CCO [alcohol, ethanol] | up-regulated | increased |  |  |  |
| CC1=C(/C=C/C(C)=C/C=C/C(C)=C/C(=O)O)C(C)(C)CCC1 [retinoic acid] |  |  | significantly increased | all increased | all increased |
